Non-standard residues stand in square brackets, D forms with d. Residues, ends and D or L forms follow the SMILES beside them. ξ: configuration not given here. *: point of attachment. ξPhe(4-NO2) = NC(Cc1ccc([N+](=O)[O-])cc1)C(=O)O; Boc = CC(C)(C)OC(=O)*; OBn = c1ccc(CO*)cc1
First: O=C1CC(c2cccc(-n3cncn3)c2)=Nc2ccc(C#Cc3ccc(F)cc3)cc2N1
Second: CS(=O)(=O)c1ccc(-c2cnn(Cc3ccccc3)c(=S)c2-c2ccc(F)cc2)cc1
The melting point of the first is higher: 217 to 218 °C for the first, 88 to 90 °C for the second.

Compared with `O=C(Nc1ccc(-n2nc(C(F)(F)F)cc2C(F)(F)F)cc1)c1ccc(F)c(F)c1F`, `COc1ccc(C(=O)Nc2ccc(C(=O)O)cc2)cc1C(C)(C)C` is higher in melting point: 122 to 124 °C for the first, 250 °C for the second.

First: O=C(O)c1ccc(N2C(=O)c3ccc(C(=O)O)cc3C2=O)cc1
Second: Cc1cccc(-c2ccc(-c3nnc(-c4cccc(C(=O)O)c4)o3)cc2)c1
The melting point of the first is higher: 377 to 379 °C for the first, 240 to 242 °C for the second.

First: O=C(CNS(=O)(=O)c1ccc2ccccc2c1)NCC(NC(=O)C1CCN(c2ccncc2)CC1)C(=O)C1CCCCN1 (centres undefined)
Second: COC(=O)c1ccc(Cn2nc(OCc3ccccc3)c3ccc(NC(=O)CC4CCCC4)cc32)c(OC)c1
The melting point of the first is higher: 200 to 202 °C for the first, 139 to 140 °C for the second.

First: O=C(O)c1ccccc1C=Cc1cccc(Br)c1
Second: COc1c(C(=O)O)oc2c3ccccc3n(-c3ccccc3)c12
The melting point of the first is lower: 145 to 150 °C for the first, 154 to 155 °C for the second.

First: COC(=O)c1ccc(NC=O)nc1
Second: COC(=O)c1ccc(OCCN)cc1
The melting point of the first is higher: 218 to 220 °C for the first, 53 to 55.5 °C for the second.

Compared with `O=c1c2ccccc2nnn1OS(=O)(=O)c1ccccc1`, `O=c1c2c(n(-c3ccccc3)c3ncccc13)CCC2` is higher in melting point: 132 to 134 °C for the first, 235 to 237 °C for the second.

First: N#Cc1c(N)nc2ccc(N3CCN(Cc4ccccc4)CC3)cc2c1O
Second: COc1cc(N2C(=O)CCC2=O)ccc1OCCCN1CCN(c2ccccc2)CC1
The melting point of the first is higher: 291 °C for the first, 166 to 167 °C for the second.

First: CC(=O)OC(c1ccccc1)C1C(=O)NC1S(C)(=O)=O (mixture of isomers)
Second: Cn1cc(OS(C)(=O)=O)c(=O)c2cccc(F)c21
The melting point of the first is lower: 178 to 182 °C for the first, 207 to 209 °C for the second.

First: On1c(C(F)(F)F)nc2ncc(Cl)cc21
Second: Oc1ccc(Oc2ncc(C(F)(F)F)cc2Cl)cc1
The melting point of the first is higher: 264 to 266 °C for the first, 70 to 72 °C for the second.

Compared with `O=C(CNC(=O)OC(c1ccccc1)c1ccccc1)Oc1c(Cl)c(Cl)c(Cl)c(Cl)c1Cl`, `Cc1nc(N2CCCC(C(O)c3ccccc3)C2=O)sc1C(=O)NCc1ccccc1` (centres undefined) is lower in melting point: 171 to 172 °C for the first, 74 to 75 °C for the second.

First: COc1cc2c(OC)c3c(c(-c4ccc5c(c4)OCO5)c2cc1OC)C(=O)OC3
Second: CC(C)(OCc1cc2nc(Cl)ccc2n1S(=O)(=O)c1ccc2c(c1)OCO2)C(=O)O
The melting point of the first is higher: 256 to 258 °C for the first, 172 °C for the second.

First: C#CCOc1ccc(C(=O)C=Cc2ccc(C#N)cc2)c(O)c1
Second: CCOC(=O)COc1ccc(C(=O)c2cccs2)c2ccccc12
The melting point of the first is higher: 188 to 190 °C for the first, 79 °C for the second.

First: Cc1cccc(NC(=O)CN2C(=O)C3(COc4cc5c(cc43)CCO5)c3ccccc32)c1C (centres undefined)
Second: CCCCCCC(=O)Nc1cccc2c1C1(COc3cc4c(cc31)OCCO4)C(=O)N2C (centres undefined)
The melting point of the first is higher: 251 to 253 °C for the first, 123 to 124 °C for the second.

First: CCC(C)CNNC(=O)c1cc(N)cc(C(=O)NNCC(C)CC)c1 (centres undefined)
Second: CCC(CC)N(O)C(=O)Nc1ccc([N+](=O)[O-])cc1
The melting point of the first is lower: 162 to 163 °C for the first, 169 to 170 °C for the second.

First: CCOC(=O)C1=C(CS(=O)CCN)NC(C)=C(C(=O)OC)C1c1cccc([N+](=O)[O-])c1 (centres undefined)
Second: CCOC(=O)C1=C(C)Nc2n[nH]cc2C1c1cccc2nonc12 (centres undefined)
The melting point of the first is lower: 170 to 172 °C for the first, 228 °C for the second.

First: Nc1cccc2cnc(Cl)cc12
Second: Cc1cc(Cl)nnc1NS(=O)(=O)c1cccc2c(N(C)C)cccc12
The melting point of the first is lower: 176 to 177 °C for the first, 182 to 186 °C for the second.

Compared with `CC(C)(C)OC(=O)CN1CCN(c2ccnc(-c3nc(=O)c4ccccc4s3)c2)C1=O`, `COc1cc(CC(=O)OC(C)(C)C)ccc1NC(=O)Nc1ccccc1C(F)(F)F` is lower in melting point: 192 to 194 °C for the first, 131 to 133 °C for the second.

First: CCOC(=O)C(=O)c1cc(OC)c(O)c([N+](=O)[O-])c1
Second: COCC(=O)COc1c([N+](=O)[O-])ccc(F)c1F
The melting point of the first is higher: 165 to 167 °C for the first, 39 to 42 °C for the second.

First: O=C(O)c1cn(C2CC2)c2nc(N3Cc4ccccc4C3)c(F)cc2c1=O
Second: CNCCC1CN(c2c(F)cc3c(=O)c(C(=O)O)cn(C4CC4)c3c2F)CCO1 (centres undefined)
The melting point of the first is higher: greater than 300 °C for the first, 243 to 251 °C for the second.

Compared with `O=C1CCC(N2Cc3c(OCc4ccc(CN5CCN(c6ccccn6)CC5)cc4)cccc3C2=O)C(=O)N1` (centres undefined), `O=C1c2ccccc2C(=O)N1CC(=O)N1c2ccccc2N(Cc2ccccc2)C(=O)C2(Cc3ccccc3)CCCC12` (centres undefined) is higher in melting point: 165 to 167 °C for the first, 214 to 215 °C for the second.

First: COCCOCCOc1ccc2sc(C(=O)Nc3ccccc3N)cc2c1
Second: CN(CCCCNC(=O)c1cc2ccccc2s1)C1CCc2ncsc2C1 (centres undefined)
The melting point of the first is higher: 167 to 168 °C for the first, 105 °C for the second.

First: NC1CSC(c2cccs2)CNC1=O (centres undefined)
Second: O=C1CCC2(CCN1)Cc1ccccc1C2
The melting point of the first is lower: 157 °C for the first, 164 to 165 °C for the second.

Compared with `CCN(CC)Cc1ccc2nc(-c3ccccc3F)cc(OCc3ccccc3)c2c1`, `c1ccc(COc2ccc3nc(-c4ccc(OCc5ccccc5)c(C56CC7CC(CC(C7)C5)C6)c4)[nH]c3c2)cc1` is higher in melting point: 51.2 to 51.5 °C for the first, 265 to 275 °C for the second.

First: Nc1ncnc2c1ncn2OCCOCP(=O)(O)O
Second: Cc1c(C(=O)c2sc(Nc3ccc(S(N)(=O)=O)cc3)nc2N)ncn1C
The melting point of the first is lower: 241 to 244 °C for the first, 293 to 294 °C for the second.

Compared with `N#CC1(c2ccccc2)CCC2(CC1)OCCO2`, `O=C1/C(=C/c2ccccc2)N2CCC1CC2` is higher in melting point: 108 to 110 °C for the first, 130 to 132 °C for the second.

First: CCCCCCCCCCCCCC(=O)Nc1ccc(Cl)c(NC2=NN(c3c(Cl)cc(Cl)cc3Cl)C(=O)C2SCc2ccccc2)c1 (centres undefined)
Second: CCCCCCCCN(CCCCCCCC)C(=O)c1cc(C(C)(C)C)c(OC(=O)c2cc(C(C)(C)C)c(O)c(C(C)(C)C)c2)c(C(C)(C)C)c1
The melting point of the first is higher: 182 to 185 °C for the first, 145 to 146 °C for the second.

First: CCOC(=O)C1(NC(C)=O)CC(C)(C)NC(C)(C)C1
Second: CCOC(=O)C1CCC2(C)C(=CC(O)C3C2CCC2(C)C(O)CCC32)C1 (centres undefined)
The melting point of the first is lower: 108 to 109 °C for the first, 170 to 171 °C for the second.

First: O=P1(Oc2c(Cl)cc(Cl)cc2Cl)OCC2(CO1)COP(=O)(Oc1c(Cl)cc(Cl)cc1Cl)OC2 (centres undefined)
Second: O=C1C(=O)c2ccccc2C2=C1SCC1(CCN(CCCOc3ccc(Cl)cc3)CC1)O2
The melting point of the first is higher: 283 °C for the first, 130 to 132 °C for the second.

First: COc1ccc2c(c1)C(=O)N(C)C(C(Cl)(Cl)Cl)O2 (centres undefined)
Second: COCCCn1c(Cl)nc2ccc(C)cc21
The melting point of the first is higher: 107 to 110 °C for the first, 40 to 44 °C for the second.

First: CC(=O)N1CCc2c(c3cccc4c3n2CCS4)C1
Second: CCC(=O)N1CCC(NC(=O)Nc2cccc(C(F)(F)F)c2)CC1
The melting point of the first is higher: 161 to 163 °C for the first, 153 to 154 °C for the second.

Compared with `Cc1cc(O)ccc1-n1cc(C(=O)O)c(=O)cc1C=O`, `Cc1c(C(C)O)cc(C(C)C)c(-c2ccc(O)cc2)c1Cl` (centres undefined) is lower in melting point: 230 to 250 °C for the first, 220 to 222 °C for the second.

First: CC(C)(C)OC(=O)NC(C)(COCc1ccccc1)C(=O)O (centres undefined)
Second: CC(C)(C)OC(=O)NC(Cc1ccc([N+](=O)[O-])cc1)C(=O)NCC(=O)OCc1ccccc1 (centres undefined) (Boc-[ξPhe(4-NO2)]-Gly-OBn)
The melting point of the first is lower: 112 to 114 °C for the first, 115 to 118 °C for the second.

First: N#Cc1ccc2c(c1)Sc1ccccc1O2
Second: CCOC(=O)C1Oc2ccccc2Cc2ccccc2O1
The melting point of the first is higher: 215 °C for the first, 86.5 to 88.5 °C for the second.

First: CN(C)C1CCc2[nH]c3cccc(OCc4ccccc4)c3c2C1 (centres undefined)
Second: CC(c1cc2ccccc2s1)N(OCc1ccccc1)C(N)=O (centres undefined)
The melting point of the first is higher: 207 to 209 °C for the first, 126 °C for the second.

Compared with `CC1CCN(c2cc3nc(C(C)(C)C)sc3cc2N)CC1`, `OCC1=C(c2ccc3sccc3c2)N2CCN=C2S1` is higher in melting point: 146 to 148 °C for the first, 149 to 150 °C for the second.

First: COc1ccc(CC[N+](=O)[O-])cc1OC
Second: CCn1cc(C=O)c(OCc2ccc(OCc3nc(-c4ccco4)oc3C)c(OC)c2)n1
The melting point of the first is lower: 50 to 52 °C for the first, 103 to 104 °C for the second.

First: CC(CC(=O)c1cccc(Cl)c1)C(=O)O (centres undefined)
Second: COC(=O)C(C)(N)Cc1c[nH]c2ccc(Cl)cc12 (racemic)
The melting point of the first is lower: 100 to 102 °C for the first, 170 °C for the second.

First: C#CCC(Cc1cccnc1)(C(=O)O)S(=O)(=O)c1ccc(OC)cc1 (centres undefined)
Second: C(=C\c1nc(COc2ccc(CCCCCn3ccnc3)cc2)co1)/c1ccccc1
The melting point of the first is higher: 119 to 121 °C for the first, 101 to 102 °C for the second.

First: C#CC[C@]12C=CC(=O)C=C1CC[C@H]1[C@@H]3CCC(=O)[C@@]3(C)CC[C@@H]12
Second: Cc1nc2sccn2c(=O)c1CCN1CCC(=C(c2ccc(F)cc2)c2ccc(F)cc2)CC1
The melting point of the first is higher: 200 to 201 °C for the first, 146 °C for the second.

First: O=[N+]([O-])c1cc(S(=O)(=O)NCCO)sc1Cl
Second: COC(=O)c1c(C)c(O)cc(OC)c1Cl
The melting point of the first is higher: 99 °C for the first, 92 °C for the second.

Compared with `COc1cc2c(cc1OCc1ccccc1)C(C#N)(Sc1ccc(Cl)cc1)C2` (centres undefined), `COc1ccc(C(=O)Nc2c(Cl)cncc2Cl)c2c1oc1ccccc12` is higher in melting point: 114 to 115 °C for the first, 302 °C for the second.

First: FC(F)(F)c1ccc2nc(N3CCN(c4ncccc4C(F)(F)F)CC3)[nH]c2c1
Second: O=C1C=CC(=O)c2cc(C(F)(F)F)ccc21
The melting point of the first is higher: 221 to 224 °C for the first, 80 to 85 °C for the second.

Compared with `CC(=O)NNc1ccnc2c(NC(=O)c3c(Cl)cccc3Cl)c(C)ccc12`, `Cc1ccccc1C(=O)Nc1ccc(C(=O)N2Cc3ccccc3C(=O)c3ccccc32)cc1` is lower in melting point: greater than 250 °C for the first, 115 to 119 °C for the second.

First: O=C1C(c2cccc(Br)c2)n2cncc2CN1Cc1ccncc1 (centres undefined)
Second: CC(C)Sc1cc2c(cc1Cl)N=C(c1ccncc1)NS2(=O)=O
The melting point of the first is lower: 50 to 54 °C for the first, 254 to 256 °C for the second.

First: CC1C(C(N)=O)CC2CC1C2(C)C (single isomer, unassigned; (+))
Second: CNC(=O)ON=C1SCOC1C (centres undefined)
The melting point of the first is higher: 131 °C for the first, 70 to 71.5 °C for the second.

First: CNC(=S)n1nc(N=CN(C)C)nc1N
Second: COc1cc(CN)nc(SC)n1
The melting point of the first is higher: 184 to 188 °C for the first, 35 to 38 °C for the second.

Compared with `CCc1cccc2c1C(=O)C(=S)N2`, `C[C@]12Cc3ccccc3[C@H]1Nc1ccccc12` (relative stereo) is lower in melting point: 171 to 172 °C for the first, 72 °C for the second.

First: CSC(=O)c1c(C(F)F)nc(C(F)(F)F)c(C(=O)SC)c1NC(C)C
Second: CSC(C(=O)O)c1ccsc1 (centres undefined)
The melting point of the first is higher: 92 to 94 °C for the first, 73.5 to 74 °C for the second.

Compound `Cc1nc2cc(CN3CCN(C(c4ccccc4)c4ccccc4)CC3)ccc2n1CCSc1ccccc1` has a melting point of 170 °C.
